Patent US5349127A, “Expression of herbicide metabolizing cytochromes P450” (priority 1992, dated 1994)

Tests used:
Test in all cases: Percent conversion of non-sulfonylurea herbicides (Example 29)
S. griseolus ATCC11796 = type: in vitro ADME, Streptomyces griseolus; conditions: 3.0 mg herbicide in 25 ml broth; 18 hours
Procedure: (§1) This experiment was performed as in Example 17 with the following changes. Separate cultures (50 ml) inoculated with S. lividans C37, S. lividans transformed with pCAO200SU1-FeS-B#9, or S. griseolus ATCC11796 were cultured in sporulation broth for 18 hours at 30° C. with shaking. Each culture was then resuspended in 25 ml fresh sporulation broth and 3.0 mg herbicide added. Each culture was reincubated for 18 hours, then an aliquot of the medium was withdrawn and analyzed by HPLC. The percent conversion of herbicide was determined.

S. lividans C37 = type: in vitro ADME, Streptomyces lividans; conditions: 3.0 mg herbicide in 25 ml broth; 18 hours
Procedure: as §1

[1] = test system: S. lividans pCAO200SU1-FeS-B#9; type: in vitro ADME, Streptomyces lividans
Procedure: as §1

CC(C)C1(C)N=C(c2nc3ccccc3cc2C(=O)O)NC1=O (stereo not shown) [compound 10035, 2-[4,5-dihydro-4-methyl-4-(1-methylethyl)-5-oxo-1H-imidazol-2-yl]-3-quinolinecarboxylic acid]
Percent Conversion (S. griseolus ATCC11796): 21%
Percent Conversion (S. lividans C37): 22%
Percent Conversion ([1]; 3.0 mg herbicide in 25 ml broth, 18 hours): 96%
metabolism by bacteria containing constitutively expressed P450SU1 ([1]; summary of Table 29): metabolized
